From US9863934B2, “Screening methods for cognitive enhancers” (Dart Neuroscience (Cayman) Ltd., priority 2002, dated 2018)
“Also recorded” adds a separate entry of the source.

How the values were obtained:
normal mice = assay: memory formation in normal mice after weak or strong training (% Freezing, FIG. 1); type: in vivo
Excerpt: FIG. 1 is a bar graph showing the results of drug-induced (partial) enhancement of memory in normal mice by rolipram, a prototypical phosphodiesterase (PDE) inhibitor. Five-day retention after weak training (2×) is lower than strong training (5×). Only memory after weak training is enhanced by bilateral hippocampal injections (1 :l) of rolipram immediately after training. Rolipram reduced the number of training sessions required to produce memory. % Freezing=% Observation time mice spent frozen/motionless.
These Active Hits were evaluated in vivo rodent models of memory formation. To do so efficiently, a new behavioral training protocol was validated, which logically was affected by upstream modulation of the CREB pathway. During initial stages of acquisition, repeated training trials lead to increased cAMP levels. At some point, cAMP levels pass a threshold, and activated PKA (catalytic subunit) is translocated to the nucleus, where it phosphorylates CREB directly or it yields a permissive state for the phosphorylation of CREB by a cofactor. In this context, phosphodiesterase (PDE) inhibitors act to increase cAMP levels beyond the threshold with fewer training trials, thereby producing more long-lasting memory with weaker training.

human CREB RNA = assay: human CREB bDNA assay; type: cell-based
Excerpt: CREB 1 and CREB 3 oligos have identical sequence homology with both mouse and human. CREB 17 has a single base mismatch.

[1] = test system: CREB mRNA in Neuro2a cells; assay: bDNA assay of CREB mRNA after transfection of CREB LNA antisense oligos (FIG. 3); type: cell-based, Mus musculus; settings: higher concentration (0.5 :M)
Experimental: Detection of CREB mRNA with the bDNA Assay. Mus musculus Neuro2a cells were obtained from American Type Culture Collection (ATCC, Cat. No. CCL-131; Manassas, Va.). Cells were plated in Modified Eagle's Minimum Essential Media (Minimum essential medium (Eagle) with 2 mM L-glutamine and Earle's BSS adjusted to contain 1.5 g/L sodium bicarbonate, 0.1 mM non-essential amino acids, and 1.0 mM sodium pyruvate, 90%; fetal bovine serum, […]) in a 96-microwell format at 2×10^4 cells per well. Cells were maintained at 37 C. and 5% CO2 overnight before transfecting with CREB Locked Nucleic Acid (LNA) oligonucleotides.
Cells were transfected using Lipofectamine 2000 (hivitrogen, Carlsbad, Calif.) with modifications to the manufacturer's protocol. […]
The direct quantitation of CREB messenger RNA (mRNA) following transfection of antisense oligos, was detected using the QuantiGene Expression Kit according to the manufacturer's protocol (Bayer Corporation; Tarrytown, N.Y.). […] The luminescence of each well was measured in a Wallac Victor2 V (Perkin Elmer) plate luminometer at 45 C. […]

Compound	number of training sessions required to produce memory (normal mice)	memory (five-day retention, % Freezing) after weak training (normal mice; weak training (2×), not strong training (5×), bilateral hippocampal injections (1 :l) immediately after training)	knocking down human CREB RNA levels (human CREB RNA)	effect on endogenous CREB RNA levels [1]
COc1ccc(C2CNC(=O)C2)cc1OC1CCCC1 (stereo not drawn) [rolipram]	reduced	effect was established as predicted; also recorded: enhanced		
TggCACTgTTACAgTggT (LNA modifications, as printed in the source, key not given here) [CREB17, CREB LNA antisense oligonucleotide; single base mismatch to human]			factional in knocking down human CREB RNA levels	
CCTCCgCCgCgTCACTCA (LNA modifications, as printed in the source, key not given here) [CREB1, CREB Locked Nucleic Acid (LNA) antisense oligonucleotide]			factional in knocking down human CREB RNA levels	
TggTCATTTAgTTACCggTg (as printed in the source, key not given here) [CREB3]			factional in knocking down human CREB RNA levels	reduces endogenous CREB RNA levels
